Like-named read-outs stand apart in the source and are kept apart here.
Molecular target: T1, JAK3 (Homo sapiens, UniProt P52333)
T1 construct: purchased Thermo fisher PV3855
Experiment: JAK3 biochemical assay (ADP-GLO Kinase Assay)
Details: for JAKs/HPK1 IC50 Ratio, B* / JAKs/HPK1 IC50 Ratio, N*: ratio of JAK3 IC50 to HPK1 IC50; for JAKs/HPK1 IC50 Ratio, B*: first testing facility; for JAKs/HPK1 IC50 Ratio, N*: second testing facility
Outline: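 Luminescent ADP-Glo readout after a 60 min, 25 °C reaction of JAK3 (0.78 ng) on Poly(E4Y1) (0.2 μg/μL) at 4 μM ATP, Tris pH 7.5 buffer with MgCl2, BSA and DTT. Compounds tested 10 μM down to 0.508 nM in 3-fold steps; % inhibition normalised to DMSO and reference-compound controls, IC50 from three-parameter fit.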

[1] = B*: testing performed in a first testing facility, read-out: JAK3 IC50 (nM) Relative, B*
[2] = N*: testing performed in a second testing facility, read-out: JAK3 IC50 (nM) Relative, N*

T1 sequence (P52333 781-1124 limits assumed): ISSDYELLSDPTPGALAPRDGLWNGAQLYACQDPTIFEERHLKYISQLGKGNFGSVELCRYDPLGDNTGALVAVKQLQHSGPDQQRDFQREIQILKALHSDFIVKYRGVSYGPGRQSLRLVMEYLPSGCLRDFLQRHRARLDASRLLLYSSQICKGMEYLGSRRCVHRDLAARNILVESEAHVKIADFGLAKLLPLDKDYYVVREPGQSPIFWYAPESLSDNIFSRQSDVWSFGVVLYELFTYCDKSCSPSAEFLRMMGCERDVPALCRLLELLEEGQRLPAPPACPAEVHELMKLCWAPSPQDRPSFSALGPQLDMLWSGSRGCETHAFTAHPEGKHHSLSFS

| SMILES | IC50 [1] | IC50 [2] | JAKs/HPK1 IC50 Ratio, B* | JAKs/HPK1 IC50 Ratio, N* |
| --- | --- | --- | --- | --- |
| COc1cc2c(cc1Nc1ncc(Cl)c(-n3cc(P(C)(C)=O)c4ccccc43)n1)CN(C)CC2 [Example 1, (1-(5-Chloro-2-((6-methoxy-2-methyl-1,2,3,4-tetrahydroisoquinolin-7-yl)amino)pyrimidin-4-yl)-1H-indol-3-yl)dimethylphosphine oxide] | > 1000 nM | > 1000 nM | 285 | >558 |
| COc1nc2c(cc1Nc1ncc(Cl)c(N3CCc4ccccc43)n1)CN(C)CC2 [Example 19, N-(5-chloro-4-(indolin-1-yl)pyrimidin-2-yl)-2-methoxy-6-methyl-5,6,7,8-tetrahydro-1,6-naphthyridin-3-amine] | 500 to 1000 nM | 100 to 500 nM | – | – |
| COc1cc2c(cc1Nc1ncc(Cl)c(N3CCc4cc(F)ccc43)n1)CN(C)CC2 [Example 20, N-(5-chloro-4-(5-fluoroindolin-1-yl)pyrimidin-2-yl)-6-methoxy-2-methyl-1,2,3,4-tetrahydroisoquinolin-7-amine] | 100 to 500 nM | – | 88 | – |
| COc1cc2c(cc1Nc1ncc(Cl)c(N3CCc4ccc(F)cc43)n1)CN(C)CC2 [Example 21, N-(5-chloro-4-(6-fluoroindolin-1-yl)pyrimidin-2-yl)-6-methoxy-2-methyl-1,2,3,4-tetrahydroisoquinolin-7-amine] | > 1000 nM | – | 280 | – |
| COc1cc2c(cc1Nc1ncc(Cl)c(N3CCc4ccccc43)n1)CN(C(C)C)CC2 [Example 22, N-(5-chloro-4-(indolin-1-yl)pyrimidin-2-yl)-2-isopropyl-6-methoxy-1,2,3,4-tetrahydroisoquinolin-7-amine] | > 1000 nM | – | 223 | – |
| COc1cc2c(cc1Nc1ncc(Cl)c(N3CCc4ccccc43)n1)CNCC2 [Example 23, N-(5-chloro-4-(indolin-1-yl)pyrimidin-2-yl)-6-methoxy-1,2,3,4-tetrahydroisoquinolin-7-amine] | 100 to 500 nM | – | 59 | – |
| COc1cc2c(cc1Nc1ncc(Cl)c(-n3ncc4ccccc43)n1)CN(C)CC2 [Example 24, N-(5-Chloro-4-(1H-indazol-1-yl)pyrimidin-2-yl)-6-methoxy-2-methyl-1,2,3,4-tetrahydroisoquinolin-7-amine] | > 1000 nM | – | 79 | – |
| COc1cc2c(cc1Nc1ncc(Cl)c(N3CC(C)(C)c4ccccc43)n1)CN(C)CC2 [Example 25, N-(5-Chloro-4-(3,3-dimethylindolin-1-yl)pyrimidin-2-yl)-6-methoxy-2-methyl-1,2,3,4-tetrahydroisoquinolin-7-amine] | 100 to 500 nM | – | 218 | – |
| COc1nc2c(cc1Nc1ncc(Cl)c(N3CCc4ncccc43)n1)CN(C)CC2 [Example 29, N-(5-Chloro-4-(2,3-dihydro-1H-pyrrolo[3,2-b]pyridin-1-yl)pyrimidin-2-yl)-2-methoxy-6-methyl-5,6,7,8-tetrahydro-1,6-naphthyridin-3-amine] | 500 to 1000 nM | 100 to 500 nM | 223 | 286 |
| COc1cc2c(cc1Nc1ncc(Cl)c(N3CC(C(=O)O)c4ccccc43)n1)CN(C)CC2 (stereo not shown) [Example 32, 1-(5-Chloro-2-((6-methoxy-2-methyl-1,2,3,4-tetrahydroisoquinolin-7-yl)amino)pyrimidin-4-yl)indoline-3-carboxylic acid] | ≤ 100 nM | – | 90 | – |
| COc1cc2c(cc1Nc1ncc(Cl)c(N3CC(C(N)=O)c4ccccc43)n1)CN(C)CC2 (stereo not shown) [Example 33, 1-(5-Chloro-2-((6-methoxy-2-methyl-1,2,3,4-tetrahydroisoquinolin-7-yl)amino)pyrimidin-4-yl)indoline-3-carboxamide] | ≤ 100 nM | – | 140 | – |
| COc1cc2c(cc1Nc1ncc(Cl)c(-n3cc(C(N)=O)c4ccccc43)n1)CN(C)CC2 [Example 34] | 500 to 1000 nM | – | 101 | – |
| COc1cc2c(cc1Nc1ncc(Cl)c(-n3cc(C(=O)O)c4ccccc43)n1)CN(C)CC2 [Example 35] | 100 to 500 nM | – | 78 | – |
| COc1cc2c(cc1Nc1ncc3ccn(-c4ccccc4)c3n1)CN(C)CC2 [Example 36, 6-methoxy-2-methyl-N-(7-phenyl-7H-pyrrolo[2,3-d]pyrimidin-2-yl)-1,2,3,4-tetrahydroisoquinolin-7-amine] | – | > 1000 nM | – | 287 |
| COc1cc2c(cc1Nc1ncc3ccn(-c4ccccn4)c3n1)CN(C)CC2 [Example 37, 6-Methoxy-2-methyl-N-(7-(pyridin-2-yl)-7H-pyrrolo[2,3-d]pyrimidin-2-yl)-1,2,3,4-tetrahydroisoquinolin-7-amine] | – | > 1000 nM | – | 608 |
